Measured values: ChEMBL document CHEMBL1142600, “Production of justicidin B, a cytotoxic arylnaphthalene lignan from genetically transformed root cultures of Linum leonii” (J Nat Prod, 2006)

Legend:
Assay type in all cases: functional, cell-based
K562 = test: Cytotoxicity against human K-562 cells after 72 hrs by MTT assay; settings: K562, 72 h
[1] = Cytotoxicity against human SKW3 cells after 72 hrs by MTT assay; settings: SKW3, 72 h
LAMA-84 = test: Cytotoxicity against human LAMA-84 cells after 72 hrs by MTT assay; settings: LAMA-84, 72 h

COc1cc([C@@H]2c3cc4c(cc3[C@@H](O[C@@H]3O[C@@H]5CO[C@@H](C)O[C@H]5[C@H](O)[C@H]3O)[C@H]3COC(=O)[C@H]23)OCO4)cc(OC)c1O [ETOPOSIDE]
IC50 (K562): 1870 nM | IC50 [1]: 820 nM | IC50 (LAMA-84): 790 nM
